Results: the NIST ThermoML archive (doi:10.1021/je301132p)

Assay: mn = molality of the nth substance listed, in mol/kg
Conditions: Liquid, Vibrating tube method

O=C([O-])O.[Na+] [sodium bicarbonate] + O
mass density [kg/m3]
Conditions | 298.11 K | 323.13 K | 348.12 K | 373.12 K | 398.08 K | 423.07 K | 448.03 K | 473.02 K
1100 kPa, m1 = 0.507 | 1026.64 | 1016.27 | 1002.67 | 986.45 | 967.23 | 945.6 | 921.6 | –
1100 kPa, m1 = 1 | 1053.32 | 1042.1 | 1028.17 | 1011.61 | 992.49 | 971.16 | 947.75 | –
10100 kPa, m1 = 0.507 | 1030.34 | 1019.92 | 1006.34 | 990.43 | 971.5 | 950.33 | 926.98 | 900.8
10100 kPa, m1 = 1 | 1056.9 | 1045.63 | 1031.76 | 1015.42 | 996.59 | 975.62 | 952.76 | 927.94
20100 kPa, m1 = 0.507 | 1034.56 | 1023.96 | 1010.5 | 994.75 | 976.19 | 955.52 | 932.57 | 907.44
20100 kPa, m1 = 1 | 1060.94 | 1049.49 | 1035.74 | 1019.51 | 1001.1 | 980.58 | 958.38 | 934.21
30100 kPa, m1 = 0.507 | 1038.58 | 1027.87 | 1014.5 | 998.96 | 980.67 | 960.51 | 938.23 | 913.71
30100 kPa, m1 = 1 | 1064.78 | 1053.27 | 1039.62 | 1023.49 | 1005.36 | 985.4 | 963.67 | 940.3
40100 kPa, m1 = 0.507 | 1042.55 | 1031.74 | 1018.42 | 1003.05 | 985.06 | 965.22 | 943.62 | 919.81
40100 kPa, m1 = 1 | 1068.62 | 1057.11 | 1043.26 | 1027.56 | 1009.57 | 989.89 | 968.83 | 946.08
50100 kPa, m1 = 0.507 | 1046.47 | 1035.56 | 1022.29 | 1007.05 | 989.37 | 969.93 | 948.68 | 925.55
50100 kPa, m1 = 1 | 1072.42 | 1060.81 | 1047.06 | 1031.43 | 1013.71 | 994.52 | 973.77 | 951.65
60100 kPa, m1 = 0.507 | 1050.19 | 1039.28 | 1026.03 | 1010.74 | 993.56 | 974.48 | 953.67 | 931
60100 kPa, m1 = 1 | 1075.95 | 1064.4 | 1050.67 | 1035.29 | 1017.88 | 998.85 | 978.58 | 956.83
68600 kPa, m1 = 0.507 | 1053.46 | 1042.41 | 1029.22 | 1014.16 | 996.98 | 978.13 | 957.69 | 935.54
68600 kPa, m1 = 1 | 1079.05 | 1067.35 | 1053.84 | 1038.44 | 1021.02 | 1002.43 | 982.48 | 961.25

O=S(=O)([O-])[O-].[Na+].[Na+] [sodium sulfate] + O
mass density [kg/m3]
Conditions | 298.11 K | 323.13 K | 348.12 K | 373.12 K | 398.08 K | 423.07 K | 448.03 K | 473.02 K
1100 kPa, m1 = 0.783 | 1089.58 | 1077.81 | 1063.59 | 1047 | 1028.03 | 1006.98 | 983.81 | –
1100 kPa, m1 = 1.502 | 1164.61 | 1151.3 | 1136.41 | 1119.57 | 1100.73 | 1080.12 | 1057.71 | –
10100 kPa, m1 = 0.783 | 1092.97 | 1081.15 | 1067.05 | 1050.62 | 1032.04 | 1011.36 | 988.74 | 963.68
10100 kPa, m1 = 1.502 | 1167.61 | 1154.41 | 1139.53 | 1122.86 | 1104.32 | 1084.06 | 1062.06 | 1038.23
20100 kPa, m1 = 0.783 | 1096.83 | 1084.87 | 1070.84 | 1054.57 | 1036.41 | 1016.13 | 994.07 | 969.72
20100 kPa, m1 = 1.502 | 1170.98 | 1157.75 | 1143.04 | 1126.48 | 1108.32 | 1088.31 | 1067 | 1043.59
30100 kPa, m1 = 0.783 | 1100.47 | 1088.46 | 1074.53 | 1058.52 | 1040.58 | 1020.77 | 998.93 | 975.48
30100 kPa, m1 = 1.502 | 1174.24 | 1161 | 1146.45 | 1130.05 | 1112.1 | 1092.62 | 1071.61 | 1048.78
40100 kPa, m1 = 0.783 | 1104.07 | 1092.02 | 1078.24 | 1062.4 | 1044.61 | 1025.11 | 1004.1 | 981.03
40100 kPa, m1 = 1.502 | 1177.46 | 1164.24 | 1149.78 | 1133.55 | 1115.8 | 1096.64 | 1076.11 | 1053.91
50100 kPa, m1 = 0.783 | 1107.68 | 1095.52 | 1081.79 | 1066.07 | 1048.55 | 1029.51 | 1008.75 | 986.37
50100 kPa, m1 = 1.502 | 1180.69 | 1167.41 | 1153.06 | 1136.94 | 1119.47 | 1100.57 | 1080.33 | 1058.64
60100 kPa, m1 = 0.783 | 1111.07 | 1098.98 | 1085.27 | 1069.75 | 1052.44 | 1033.66 | 1013.33 | 991.46
60100 kPa, m1 = 1.502 | 1183.64 | 1170.49 | 1156.2 | 1140.35 | 1123.02 | 1104.44 | 1084.59 | 1063.34
68600 kPa, m1 = 0.783 | 1113.99 | 1101.8 | 1088.2 | 1072.82 | 1055.65 | 1037.1 | 1017.15 | 995.65
68600 kPa, m1 = 1.502 | 1186.24 | 1173.08 | 1158.87 | 1143.15 | 1125.97 | 1107.66 | 1088.14 | 1067.18

[Cl-].[Cl-].[Sr+2] [strontium chloride] + O
mass density [kg/m3]
Conditions | 298.11 K | 323.13 K | 348.12 K | 373.12 K | 398.08 K | 423.07 K | 448.03 K | 473.02 K
1100 kPa, m1 = 1.022 | 1130.15 | 1118.47 | 1104.6 | 1088.34 | 1069.78 | 1049.35 | 1026.97 | –
1100 kPa, m1 = 2.024 | 1247.6 | 1234.1 | 1219.34 | 1202.92 | 1184.72 | 1165.03 | 1143.84 | –
1100 kPa, m1 = 3.031 | 1354.92 | 1340.16 | 1324.81 | 1308.43 | 1290.36 | 1271.02 | 1250.51 | –
10100 kPa, m1 = 1.022 | 1133.6 | 1121.92 | 1108.06 | 1092.02 | 1073.81 | 1053.57 | 1031.7 | 1007.66
10100 kPa, m1 = 2.024 | 1250.68 | 1237.28 | 1222.48 | 1206.28 | 1188.28 | 1168.83 | 1147.95 | 1125.38
10100 kPa, m1 = 3.031 | 1357.74 | 1343.03 | 1327.78 | 1311.58 | 1293.65 | 1274.46 | 1254.24 | 1232.68
20100 kPa, m1 = 1.022 | 1137.52 | 1125.75 | 1111.92 | 1095.98 | 1078.08 | 1058.3 | 1037.05 | 1013.5
20100 kPa, m1 = 2.024 | 1254.27 | 1240.69 | 1226.06 | 1209.96 | 1192.23 | 1173.04 | 1152.74 | 1130.5
20100 kPa, m1 = 3.031 | 1360.96 | 1346.27 | 1331.14 | 1315.04 | 1297.24 | 1278.29 | 1258.62 | 1237.28
30100 kPa, m1 = 1.022 | 1141.28 | 1129.44 | 1115.71 | 1100.03 | 1082.31 | 1062.95 | 1042 | 1019.02
30100 kPa, m1 = 2.024 | 1257.65 | 1244.1 | 1229.57 | 1213.53 | 1196.08 | 1177.32 | 1157.21 | 1135.33
30100 kPa, m1 = 3.031 | 1364.07 | 1349.35 | 1334.39 | 1318.4 | 1300.87 | 1282.22 | 1262.72 | 1241.64
40100 kPa, m1 = 1.022 | 1145.04 | 1133.12 | 1119.42 | 1103.81 | 1086.33 | 1067.24 | 1046.83 | 1024.58
40100 kPa, m1 = 2.024 | 1260.99 | 1247.56 | 1233.02 | 1217.2 | 1199.73 | 1181.23 | 1161.52 | 1140.28
40100 kPa, m1 = 3.031 | 1367.19 | 1352.55 | 1337.62 | 1321.75 | 1304.29 | 1285.9 | 1266.77 | 1246.19
50100 kPa, m1 = 1.022 | 1148.76 | 1136.68 | 1123.04 | 1107.65 | 1090.29 | 1071.7 | 1051.49 | 1029.72
50100 kPa, m1 = 2.024 | 1264.44 | 1250.9 | 1236.41 | 1220.6 | 1203.4 | 1185.23 | 1165.8 | 1144.86
50100 kPa, m1 = 3.031 | 1370.34 | 1355.63 | 1340.81 | 1324.88 | 1307.65 | 1289.64 | 1270.62 | 1250.44
60100 kPa, m1 = 1.022 | 1152.26 | 1140.25 | 1126.67 | 1111.38 | 1094.27 | 1075.85 | 1056.12 | 1034.76
60100 kPa, m1 = 2.024 | 1267.55 | 1254.09 | 1239.66 | 1224.07 | 1207.02 | 1189.05 | 1169.91 | 1149.32
60100 kPa, m1 = 3.031 | 1373.16 | 1358.71 | 1343.89 | 1328.14 | 1311.1 | 1293.25 | 1274.47 | 1254.53
68600 kPa, m1 = 1.022 | 1155.3 | 1143.18 | 1129.67 | 1114.46 | 1097.55 | 1079.3 | 1059.85 | 1038.86
68600 kPa, m1 = 2.024 | 1270.33 | 1256.76 | 1242.52 | 1226.94 | 1210.03 | 1192.19 | 1173.33 | 1153.07
68600 kPa, m1 = 3.031 | 1375.7 | 1361.18 | 1346.54 | 1330.91 | 1313.86 | 1296.08 | 1277.59 | 1257.93
